Assay results: patent publication US20210127673A1, “HERBICIDES” (SYNGENTA PARTICIPATIONS AG, priority 2016, published 2021)

Tests used:
Format in all cases: in vivo
Conditions in all cases: evaluated after 13 days
[1] = test system: Triticum aestivium (TRZAW); assay: Pre-emergence herbicidal activity, Triticum aestivium; parameters: key: 5=total damage to plant; 0=no damage to plant
Procedure, shortened: (§1)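 Pots of seeds were sprayed one day after sowing (pre-emergence) with compound in acetone/water (50:50) plus 0.5% Tween 20, then grown in a glasshouse at 24/16 °C day/night, 14 h light, 65% humidity. Damage scored 0–5 (5 = total damage) after 13 days.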

[2] = test system: Avena fatua (AVEFA); assay: Pre-emergence herbicidal activity, Avena fatua; parameters: key: 5=total damage to plant; 0=no damage to plant
Procedure, shortened: as §1

[3] = test system: Alopecurus myosuroides (ALOMY); assay: Pre-emergence herbicidal activity, Alopecurus myosuroides; parameters: key: 5=total damage to plant; 0=no damage to plant
Procedure, shortened: as §1

[4] = test system: Echinochloa crus-galli (ECHCG); assay: Pre-emergence herbicidal activity, Echinochloa crus-galli; parameters: key: 5=total damage to plant; 0=no damage to plant
Procedure, shortened: as §1

[5] = test system: Lolium perenne (LOLPE); assay: Pre-emergence herbicidal activity, Lolium perenne; parameters: key: 5=total damage to plant; 0=no damage to plant
Procedure, shortened: as §1

[6] = test system: Setaria faberi (SETFA); assay: Pre-emergence herbicidal activity, Setaria faberi; parameters: key: 5=total damage to plant; 0=no damage to plant
Procedure, shortened: as §1

[7] = test system: Triticum aestivium (TRZAW); assay: Post-emergence herbicidal activity, Triticum aestivium; parameters: key: 5=total damage to plant; 0=no damage to plant
Procedure, shortened: (§2)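 Scoring runs 0 (no damage) to 5 (total damage), assessed 13 days after treatment. Seedlings 8 days post-sowing received an aqueous spray from acetone/water 50:50 with 0.5% Tween 20, then were kept at 24/16 °C, 14 h light, 65% humidity and watered twice daily.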

[8] = test system: Avena fatua (AVEFA); assay: Post-emergence herbicidal activity, Avena fatua
Procedure, shortened: as §2

[9] = test system: Alopecurus myosuroides (ALOMY); assay: Post-emergence herbicidal activity, Alopecurus myosuroides; parameters: key: 5=total damage to plant; 0=no damage to plant
Procedure, shortened: as §2

[10] = test system: Echinochloa crus-galli (ECHCG); assay: Post-emergence herbicidal activity, Echinochloa crus-galli; parameters: key: 5=total damage to plant; 0=no damage to plant
Procedure, shortened: as §2

[11] = test system: Lolium perenne (LOLPE); assay: Post-emergence herbicidal activity, Lolium perenne
Procedure, shortened: as §2

[12] = test system: Setaria faberi (SETFA); assay: Post-emergence herbicidal activity, Setaria faberi; parameters: key: 5=total damage to plant; 0=no damage to plant
Procedure, shortened: as §2

| Structure (SMILES) | Control of TRAZW after pre-emergence application (score 0-5) ([1]; 1000 g/ha) | Control of AVEFA after pre-emergence application (score 0-5) ([2]; 1000 g/ha) | Control of ALOMY after pre-emergence application (score 0-5) ([3]; 1000 g/ha) | Control of ECHCG after pre-emergence application (score 0-5) ([4]; 1000 g/ha) | Control of LOLPE after pre-emergence application (score 0-5) ([5]; 1000 g/ha) | Control of SETFA after pre-emergence application (score 0-5) ([6]; 1000 g/ha) | Control of TRAZW after post-emergence application (score 0-5) ([7]; 1000 g/ha) | Control of AVEFA after post-emergence application (score 0-5) ([8]; 1000 g/ha) | Control of ALOMY after post-emergence application (score 0-5) ([9]; 1000 g/ha) | Control of ECHCG after post-emergence application (score 0-5) ([10]; 1000 g/ha) | Control of LOLPE after post-emergence application (score 0-5) ([11]; 1000 g/ha) | Control of SETFA after post-emergence application (score 0-5) ([12]; 1000 g/ha) | other results |
| --- | --- | --- | --- | --- | --- | --- | --- | --- | --- | --- | --- | --- | --- |
| CC(C)CNC(=O)Nc1ccc(-c2cncc(F)c2)nc1C(F)(F)F [Compound B90] | – | – | – | – | – | – | – | – | – | – | – | – | Control of TRAZW after pre-emergence application (score 0-5) ([1]; 250 g/ha): 0; Control of AVEFA after pre-emergence application (score 0-5) ([2]; 250 g/ha): 1; Control of ALOMY after pre-emergence application (score 0-5) ([3]; 250 g/ha): 0; Control of ECHCG after pre-emergence application (score 0-5) ([4]; 250 g/ha): 4; Control of LOLPE after pre-emergence application (score 0-5) ([5]; 250 g/ha): 1; Control of SETFA after pre-emergence application (score 0-5) ([6]; 250 g/ha): 5; Control of TRAZW after post-emergence application (score 0-5) ([7]; 250 g/ha): 0; Control of AVEFA after post-emergence application (score 0-5) ([8]; 250 g/ha): 3; Control of ALOMY after post-emergence application (score 0-5) ([9]; 250 g/ha): 0; Control of ECHCG after post-emergence application (score 0-5) ([10]; 250 g/ha): 4; Control of LOLPE after post-emergence application (score 0-5) ([11]; 250 g/ha): 2; Control of SETFA after post-emergence application (score 0-5) ([12]; 250 g/ha): 5 |
| CC(C)COC(=O)Nc1ccc(-c2cncc(F)c2)nc1C(F)(F)F [Compound B43] | 1 | 1 | 1 | 3 | 1 | 4 | 2 | 4 | 1 | 4 | 3 | 5 | – |
| N#CC1(NC(=O)Nc2ccc(-c3cncc(F)c3)nc2C(F)(F)F)CCC1 [Compound B81] | 0 | 1 | 1 | 5 | 1 | 5 | 1 | 3 | 1 | 5 | 2 | 5 | – |
| COC(=O)CN(C(=O)OC(C)(C)C)c1ccc(-c2cncc(F)c2)nc1C(F)(F)F [Compound B11] | 0 | 0 | 0 | 0 | 0 | 1 | 0 | 1 | 0 | 2 | 1 | 3 | – |
| CC(C)(C)OC(=O)N(C(=O)OC(C)(C)C)c1ccc(-c2cncc(F)c2)nc1C#N [Compound B114] | 0 | 1 | 0 | 5 | 1 | 5 | 1 | 4 | 0 | 5 | 3 | 5 | – |
| CSc1cncc(-c2ccc(NC(=O)OC(C)(C)C)c(C)n2)c1 [Compound B12] | 0 | 1 | 1 | 1 | 1 | 3 | 1 | 2 | 1 | 2 | 2 | 3 | – |
